This note sets out measurements from ChEMBL document CHEMBL4017463, “Practical application of 3-substituted-2,6-difluoropyridines in drug discovery: Facile synthesis of novel protein kinase C theta inhibitors” (Bioorg Med Chem Lett, 2017).

As a reminder, the IC50 is the midpoint of a concentration-inhibition curve.

In the experiment the target is Protein kinase C theta type (Homo sapiens, UniProt Q04759). As to the kind of experiment: Inhibition of N-terminal FLAG-tagged PKCtheta (unknown origin) expressed in baculovirus expression system using fluorescein-PKC as substrate preincubated for 5 mins followed by substrate addition measured after 60 mins in presence of ATP by Lathascreen TR-FRET assay. Background: Time-resolved FRET reads energy transfer from a long-lived donor to a nearby acceptor.
Sequence of Protein kinase C theta type (Q04759 whole entry): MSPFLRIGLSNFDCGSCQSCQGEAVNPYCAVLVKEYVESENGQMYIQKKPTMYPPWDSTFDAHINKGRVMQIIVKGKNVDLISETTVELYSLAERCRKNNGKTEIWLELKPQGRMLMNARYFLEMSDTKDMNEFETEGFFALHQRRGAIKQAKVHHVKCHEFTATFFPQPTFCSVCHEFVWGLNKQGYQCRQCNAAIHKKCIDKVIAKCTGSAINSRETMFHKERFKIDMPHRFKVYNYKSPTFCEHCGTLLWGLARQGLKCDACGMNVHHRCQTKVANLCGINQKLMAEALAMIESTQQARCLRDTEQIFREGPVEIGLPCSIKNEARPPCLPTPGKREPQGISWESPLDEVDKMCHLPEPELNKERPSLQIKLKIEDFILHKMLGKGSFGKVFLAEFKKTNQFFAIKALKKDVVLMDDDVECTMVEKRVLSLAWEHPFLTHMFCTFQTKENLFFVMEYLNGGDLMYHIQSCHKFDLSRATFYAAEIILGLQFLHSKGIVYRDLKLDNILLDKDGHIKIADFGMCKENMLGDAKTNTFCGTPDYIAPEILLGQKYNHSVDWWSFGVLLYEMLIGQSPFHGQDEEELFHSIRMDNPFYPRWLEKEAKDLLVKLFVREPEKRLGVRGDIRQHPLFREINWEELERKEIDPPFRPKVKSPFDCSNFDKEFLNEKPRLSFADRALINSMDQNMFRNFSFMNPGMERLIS

Consider `O=c1[nH]c2ncccc2n1-c1nc(N2CCCNCC2)ccc1F`, for which the half-inhibitory concentration (IC50) amounted to 100 nM.
To `O=c1[nH]c2ncccc2n1-c1nc(N2CCCNCC2)ccc1Cl` belongs 18 nM; to `CCOc1ccnc2[nH]c(=O)n(-c3nc(N4CCCNCC4)ccc3Cl)c12`, 0.086 nM.
To `O=c1[nH]c2ncccc2n1-c1nc(N2CCCC(C(O)C3CC3)C2)ccc1F` (stereo unspecified) belongs > 1000 nM; to `CN1CCCCOc2ccnc3[nH]c(=O)n(c23)-c2nc1ccc2Cl`, 0.87 nM; to `CN1CCCOc2ccnc3[nH]c(=O)n(c23)-c2nc1ccc2Cl`, 6.7 nM.
To `O=c1[nH]c2nccc3c2n1-c1nc(ccc1Cl)OCCCCO3` belongs 14 nM; to `CC(C)CC1CCCN1c1ccc(F)c(-n2c(=O)[nH]c3ncccc32)n1` (racemic), 250 nM.
Take `CC(C)(C)OC(=O)N1CCN(c2ccc([N+](=O)[O-])c(-n3c(=O)[nH]c4ncccc43)n2)C(c2ccccc2)C1` (racemic): the IC50 was 0.18 nM.
To `N#Cc1ccc(N2CCNCC2c2ccccc2)nc1-n1c(=O)[nH]c2ncccc21` (racemic) belongs 6.3 nM.
To `COc1ccnc2[nH]c(=O)n(-c3nc(N4CCNC(c5ccccc5)C4)ccc3Cl)c12` (racemic) belongs 33 nM.
